Assay results: the supplement of paper PMC11061612

Experiments:
[1] = system: 8505C (Thyroid Gland Carcinoma); assay: combination Emax (second highest fraction inhibited in the dose matrix, 72 h); higher = more inhibition; extreme values may be limits of the assay
Procedure, shortened: (§1)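 After 24 hours at 37°C and 5% CO2 in 1536-well plates, cells in DMEM/F12 or RPMI plus 10% FBS received two-drug dose matrices for 72 hours. Viability came from CellTiter-Glo 2.0 luminescence and was scaled as inhibition, anchored at 0 by vehicle wells and at 1 by blank wells. Combination Emax is taken as the second-highest inhibition in the matrix, and Bliss excess as the observed combination effect less EA + EB − EA·EB, with EA and EB the single-agent effects.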

[2] = system: T-T (Esophageal Squamous Cell Carcinoma); assay: Bliss excess, mean over the matrix (fraction); higher = more synergy
Procedure, shortened: as §1

[3] = system: PC-3 (Prostate Carcinoma); assay: as above
Procedure, shortened: as §1

[4] = system: H9 (T-Cell Non-Hodgkin's Lymphoma); assay: as above
Procedure, shortened: as §1

[5] = system: MOLM-13 (Acute Myeloid Leukemia); assay: as above
Procedure, shortened: as §1

[6] = system: JHH-4 (Hepatocellular Carcinoma); assay: as above
Procedure, shortened: as §1

[7] = system: NCCIT (Other Solid Carcinomas); assay: as above
Procedure, shortened: as §1

G-361 (Melanoma) = assay: as above
Procedure, shortened: as §1

[8] = system: SU-DHL-5 (B-Cell Non-Hodgkin's Lymphoma); assay: as above
Procedure, shortened: as §1

[9] = system: NCI-H526 (Small Cell Lung Carcinoma); assay: as above
Procedure, shortened: as §1

[10] = system: HCC1187 (Breast Carcinoma); assay: as above
Procedure, shortened: as §1

[11] = system: CHSA8926 (Chondrosarcoma); assay: as above
Procedure, shortened: as §1

[12] = system: ESO51 (Esophageal Adenocarcinoma); assay: as above
Procedure, shortened: as §1

[13] = system: KY821 (Acute Myeloid Leukemia); assay: as above
Procedure, shortened: as §1

[14] = system: SUP-B15 (B-Lymphoblastic Leukemia); assay: as above
Procedure, shortened: as §1

[15] = system: KP-3 (Pancreatic Carcinoma); assay: as above
Procedure, shortened: as §1

[16] = system: NCI-H3122 (Lung Adenocarcinoma); assay: as above
Procedure, shortened: as §1

[17] = system: MN-60 (B-Lymphoblastic Leukemia); assay: as above
Procedure, shortened: as §1

NCI-H2731 (Mesothelioma) = assay: as above
Procedure, shortened: as §1

[18] = system: IM-95 (Gastric Carcinoma); assay: as above
Procedure, shortened: as §1
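Wherever Bliss excess, mean over the matrix is given: after 72 h of two-drug dosing.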

SMILES | combination Emax [1] | Bliss excess [2] | Bliss excess [3] | Bliss excess [4] | Bliss excess [5] | Bliss excess [6] | Bliss excess [7] | Bliss excess (G-361 (Melanoma)) | Bliss excess [8] | Bliss excess [9] | Bliss excess [10] | Bliss excess [11] | Bliss excess [12] | Bliss excess [13] | Bliss excess [14] | Bliss excess [15] | Bliss excess [16] | Bliss excess [17] | Bliss excess (NCI-H2731 (Mesothelioma)) | Bliss excess [18]
CCN(CCO)CCCOc1ccc2c(Nc3cc(CC(=O)Nc4cccc(F)c4)[nH]n3)ncnc2c1 [AZD2811] + C[C@@H]1COCCN1C2=NC(=NC(=C2)C3(CC3)[S@](=N)(=O)C)C4=C5C=CNC5=NC=C4 [AZD6738] (first compound max 1 µM, 7x7, partner max 10 µM) | 0.278 | -0.0105 | -0.061 | -0.0673 | -0.0161 | -0.0341 | -0.0506 | -0.0875 | -0.0382 | -0.0178 | -0.0841 | -0.0037 | -0.0567 | 0.105 | -0.0468 | -0.0582 | -0.063 | -0.0215 | -0.0668 | 0.0291
CCN(CCO)CCCOc1ccc2c(Nc3cc(CC(=O)Nc4cccc(F)c4)[nH]n3)ncnc2c1 [AZD2811] + O=C(c1cc(Cc2n[nH]c(=O)c3ccccc23)ccc1F)N1CCN(C(=O)C2CC2)CC1 [Olaparib] (first compound max 1 µM, 7x7, partner max 10 µM) | 0.212 | -0.0073 | -0.0231 | -0.0965 | -0.0094 | -0.0293 | -0.0195 | -0.0295 | -0.0466 | 0.0486 | -0.0668 | 0.0124 | -0.0379 | 0.0512 | -0.0227 | -0.0484 | 0.0018 | -0.0206 | 0.0001 | 0.0087
CN(CCO)CC[C@H](CSc1ccccc1)Nc1ccc(S(=O)(=O)NC(=O)c2ccc(N3CCC([C@@H](O)c4ccccc4-c4ccc(Cl)cc4)CC3)cc2)cc1S(=O)(=O)C(F)(F)F [AZD4320] + C1CN(CCC1(C(=O)N[C@@H](CCO)C2=CC=C(C=C2)Cl)N)C3=NC=NC4=C3C=CN4 [Capivasertib] (first compound max 1 µM, 7x7, partner max 3 µM) | 0.135 | -0.0171 | -0.053 | 0.0026 | -0.0169 | -0.0411 | 0.0224 | -0.0244 | 0.0065 | -0.0075 | -0.0276 | -0.0059 | -0.0434 | 0.0157 | -0.0203 | -0.0438 | -0.0613 | -0.0157 | -0.0435 | -0.0545
CN(CCO)CC[C@H](CSc1ccccc1)Nc1ccc(S(=O)(=O)NC(=O)c2ccc(N3CCC([C@@H](O)c4ccccc4-c4ccc(Cl)cc4)CC3)cc2)cc1S(=O)(=O)C(F)(F)F [AZD4320] + C=CCn1c(=O)c2cnc(Nc3ccc(N4CCN(C)CC4)cc3)nc2n1-c1cccc(C(C)(C)O)n1 [AZD1775] (first compound max 1 µM, partner max 1 µM) | 0.187 | 0.0409 | -0.0525 | 0.0178 | 0.0252 | -0.0041 | 0.0045 | 0.0539 | 0.0007 | 0.0367 | -0.0064 | 0.102 | 0.0693 | -0.0117 | 0.0733 | -0.0417 | -0.0108 | -0.0058 | -0.0106 | -0.0023
CN(CCO)CC[C@H](CSc1ccccc1)Nc1ccc(S(=O)(=O)NC(=O)c2ccc(N3CCC([C@@H](O)c4ccccc4-c4ccc(Cl)cc4)CC3)cc2)cc1S(=O)(=O)C(F)(F)F [AZD4320] + CCN(CCO)CCCOc1ccc2c(Nc3cc(CC(=O)Nc4cccc(F)c4)[nH]n3)ncnc2c1 [AZD2811] (first compound max 1 µM, 7x7, partner max 1 µM) | 0.369 | 0.01 | -0.0127 | -0.0247 | 0.0171 | -0.0226 | 0.0034 | 0.0679 | -0.143 | 0.105 | -0.0032 | 0.0873 | 0.0025 | 0.162 | 0.0255 | -0.0476 | -0.0456 | -0.0231 | -0.005 | 0.134
CN(CCO)CC[C@H](CSc1ccccc1)Nc1ccc(S(=O)(=O)NC(=O)c2ccc(N3CCC([C@@H](O)c4ccccc4-c4ccc(Cl)cc4)CC3)cc2)cc1S(=O)(=O)C(F)(F)F [AZD4320] + CN(C)CCCOc1ccc(-c2ccc3ncc4c(c3c2)n(C2CCOCC2)c(=O)n4C)cn1 [AZD0156] (first compound max 1 µM, 7x7, partner max 1 µM) | 0.174 | -0.0047 | -0.0266 | -0.0151 | -0.0649 | -0.016 | -0.0299 | 0.001 | -0.066 | -0.0092 | 0.0062 | -0.0797 | -0.0095 | 0.002 | -0.0535 | -0.0462 | -0.0486 | 0.0032 | -0.0485 | -0.0683
